Values joined by “and” are separate entries in the source; they are usually repeats but may differ in a detail not shown here. Equal entries are not always repeated. ± gives the expanded uncertainty stated by the source.
Assays:
[1] = 101 kPa, Liquid
[2] = xn = mol fraction of the nth substance listed; conditions: 101 kPa, Liquid

CCO [ethanol]
[1]
Conditions | mass density [kg/m3] | speed of sound [m/s] | viscosity [mPa·s]
293.15 K | 789.75 ± 0.91 | 1162 ± 1 | 1.187 ± 0.057
298.15 K | 785.46 ± 0.92 | 1145 ± 1 | 1.082 ± 0.053
303.15 K | 781.15 ± 0.94 | 1128 ± 1 | 0.987 ± 0.049

CCC(C)O (stereo unspecified) [butan-2-ol] + CC1CCCC1
[2], x2 = 0
Conditions | speed of sound [m/s]
293.15 K | 1230 ± 1
298.15 K | 1212 ± 1
303.15 K | 1194 ± 1

CC1CCCC1 [methylcyclopentane] + CCCC(C)O
speed of sound [m/s], [2]
Conditions | 293.15 K | 298.15 K | 303.15 K
x1 = 0.0484 | 1244 ± 2 | 1225 ± 2 | 1206 ± 2
x1 = 0.0999 | 1236 ± 2 | 1217 ± 2 | 1198 ± 2
x1 = 0.1949 | 1223 ± 2 | 1203 ± 2 | 1183 ± 2
x1 = 0.3177 | 1207 ± 3 | 1187 ± 3 | 1167 ± 3
x1 = 0.4017 | 1198 ± 3 | 1178 ± 3 | 1157 ± 3
x1 = 0.4945 | 1190 ± 3 | 1169 ± 3 | 1149 ± 3
x1 = 0.6131 | 1184 ± 4 | 1163 ± 4 | 1141 ± 4
x1 = 0.7107 | 1183 ± 4 | 1161 ± 4 | 1139 ± 4
x1 = 0.815 | 1183 ± 4 | 1161 ± 4 | 1138 ± 4
x1 = 0.9083 | 1187 ± 5 | 1164 ± 5 | 1141 ± 5
x1 = 0.9535 | 1190 ± 5 | 1167 ± 5 | 1144 ± 5
x1 = 1 | 1197 ± 5 | 1174 ± 5 | 1150 ± 5

CCCO [propan-1-ol]
[1]
Conditions | mass density [kg/m3] | speed of sound [m/s] | viscosity [mPa·s]
293.15 K | 803.59 ± 0.95 | 1223 ± 2 | 2.159 ± 0.099
298.15 K | 799.58 ± 0.96 | 1206 ± 2 | 1.915 ± 0.089
303.15 K | 795.55 ± 0.97 | 1189 ± 2 | 1.713 ± 0.08

CCCC(C)O (stereo unspecified) [pentan-2-ol] + CC1CCCC1
[2], x2 = 0
Conditions | speed of sound [m/s]
293.15 K | 1250 ± 2
298.15 K | 1232 ± 2
303.15 K | 1214 ± 2

CC1CCCC1 [methylcyclopentane] + CCCCO
speed of sound [m/s], [2]
Conditions | 293.15 K | 298.15 K | 303.15 K
x1 = 0.0485 | 1250 ± 1 | 1233 ± 1 | 1216 ± 1
x1 = 0.0993 | 1243 ± 2 | 1226 ± 2 | 1208 ± 2
x1 = 0.1973 | 1231 ± 2 | 1213 ± 2 | 1194 ± 2
x1 = 0.3038 | 1219 ± 2 | 1200 ± 2 | 1180 ± 2
x1 = 0.4036 | 1210 ± 3 | 1190 ± 3 | 1169 ± 3
x1 = 0.5055 | 1202 ± 3 | – | –
x1 = 0.5078 | – | 1181 ± 3 | 1160 ± 3
x1 = 0.6152 | 1195 ± 3 | 1173 ± 3 | 1151 ± 3
x1 = 0.7053 | 1191 ± 4 | 1169 ± 4 | 1146 ± 4
x1 = 0.8132 | 1189 ± 4 | 1166 ± 4 | 1143 ± 4
x1 = 0.9096 | 1190 ± 5 | 1166 ± 5 | 1143 ± 5
x1 = 0.9537 | 1191 ± 5 | 1168 ± 5 | 1145 ± 5
x1 = 1 | 1197 ± 5 | 1174 ± 5 | 1150 ± 5

CCCCO [butan-1-ol]
[1]
Conditions | mass density [kg/m3] | speed of sound [m/s] | viscosity [mPa·s]
293.15 K | 809.5 ± 0.85 | 1257 ± 1 | 2.941 ± 0.13
298.15 K | 805.75 ± 0.86 | 1240 ± 1 | 2.571 ± 0.12
303.15 K | 801.8 ± 0.87 | 1224 ± 1 | 2.255 ± 0.1

CCCO [propan-1-ol] + CC1CCCC1
[2], x2 = 0
Conditions | speed of sound [m/s]
293.15 K | 1223 ± 2
298.15 K | 1206 ± 2
303.15 K | 1189 ± 2

CCC(C)O (stereo unspecified) [butan-2-ol]
[1]
Conditions | mass density [kg/m3] | speed of sound [m/s] | viscosity [mPa·s]
293.15 K | 806.84 ± 0.88 | 1230 ± 1 | 3.623 ± 0.16
298.15 K | 802.72 ± 0.89 | 1212 ± 1 | 2.995 ± 0.13
303.15 K | 798.51 ± 0.9 | 1194 ± 1 | 2.493 ± 0.11

CC(C)O [propan-2-ol] + CC1CCCC1
[2], x2 = 0
Conditions | speed of sound [m/s]
293.15 K | 1156 ± 5
298.15 K | 1139 ± 5
303.15 K | 1121 ± 5

CC(C)O [propan-2-ol]
[1]
Conditions | mass density [kg/m3] | speed of sound [m/s] | viscosity [mPa·s]
293.15 K | 785.07 ± 0.92 | 1156 ± 5 | 2.382 ± 0.11
298.15 K | 780.9 ± 0.9 | 1139 ± 5 | 2.045 ± 0.094
303.15 K | 776.6 ± 0.95 | 1121 ± 5 | 1.763 ± 0.082

CC1CCCC1 [methylcyclopentane]
[1]
Conditions | mass density | speed of sound [m/s] | viscosity [mPa·s]
293.15 K | 746.64 ± 2.2 kg/m3 | 1197 ± 5 | 0.504 ± 0.031
298.15 K | 741.94 ± 2.2 kg/m3 and 741.9 ± 2.2 kg/m3 | 1174 ± 5 | 0.476 ± 0.029
303.15 K | 737.21 ± 2.2 kg/m3 | 1150 ± 5 | 0.45 ± 0.028

CC1CCCC1 [methylcyclopentane] + CC(C)O
speed of sound [m/s], [2]
Conditions | 293.15 K | 298.15 K | 303.15 K
x1 = 0.0478 | 1154 ± 5 | 1136 ± 5 | 1118 ± 5
x1 = 0.1003 | 1152 ± 5 | 1134 ± 5 | 1115 ± 5
x1 = 0.2092 | 1150 ± 5 | 1130 ± 5 | 1110 ± 5
x1 = 0.2989 | 1150 ± 5 | 1129 ± 5 | 1108 ± 5
x1 = 0.4151 | 1150 ± 5 | 1129 ± 5 | 1108 ± 5
x1 = 0.4967 | 1152 ± 5 | 1131 ± 5 | 1109 ± 5
x1 = 0.603 | 1156 ± 6 | 1134 ± 6 | 1111 ± 6
x1 = 0.7118 | 1162 ± 6 | 1140 ± 6 | 1117 ± 6
x1 = 0.8061 | 1170 ± 6 | 1147 ± 6 | 1124 ± 6
x1 = 0.9026 | 1180 ± 7 | 1157 ± 7 | 1134 ± 7
x1 = 0.9555 | 1187 ± 7 | 1164 ± 7 | 1141 ± 7
x1 = 1 | 1197 ± 7 | 1174 ± 7 | 1150 ± 7

CCCCO [butan-1-ol] + CC1CCCC1
[2], x2 = 0
Conditions | speed of sound [m/s]
293.15 K | 1257 ± 1
298.15 K | 1240 ± 1
303.15 K | 1224 ± 1

CCO [ethanol] + CC1CCCC1
[2], x2 = 0
Conditions | mass density [kg/m3] | speed of sound [m/s]
293.15 K | 789.75 ± 0.91 | 1162 ± 1
298.15 K | 785.46 ± 0.92 | 1145 ± 1
303.15 K | 781.15 ± 0.94 | 1128 ± 1

CC1CCCC1 [methylcyclopentane] + CCO
[2]
Conditions | mass density, 293.15 K [kg/m3] | mass density, 298.15 K [kg/m3] | mass density, 303.15 K [kg/m3] | speed of sound, 293.15 K [m/s] | speed of sound, 298.15 K [m/s] | speed of sound, 303.15 K [m/s]
x1 = 0.0475 | 784.54 ± 0.94 | 780.2 ± 0.95 | 775.84 ± 0.96 | 1156 ± 1 | 1138 ± 1 | 1121 ± 1
x1 = 0.0967 | 780 ± 0.97 | 775.6 ± 0.99 | 771.3 ± 1 | 1153 ± 1 | 1135 ± 1 | 1117 ± 1
x1 = 0.2055 | 771.61 ± 1.1 | 767.12 ± 1.1 | 762.58 ± 1.1 | 1149 ± 2 | 1130 ± 2 | 1111 ± 2
x1 = 0.2984 | 766.18 ± 1.2 | 761.61 ± 1.2 | 756.99 ± 1.2 | 1150 ± 2 | 1130 ± 2 | 1110 ± 2
x1 = 0.4014 | 761.37 ± 1.3 | 756.73 ± 1.3 | 752.03 ± 1.3 | 1153 ± 3 | 1132 ± 2 | 1111 ± 2
x1 = 0.5007 | 757.5 ± 1.4 | 752.79 ± 1.4 | 748.03 ± 1.4 | 1158 ± 3 | 1136 ± 3 | 1114 ± 3
x1 = 0.6133 | 753.79 ± 1.6 | 749.03 ± 1.6 | 744.21 ± 1.6 | 1163 ± 3 | 1141 ± 3 | 1118 ± 3
x1 = 0.7115 | 751.2 ± 1.7 | 746.42 ± 1.7 | 741.58 ± 1.8 | 1168 ± 4 | 1146 ± 4 | 1123 ± 4
x1 = 0.8124 | 748.98 ± 1.9 | 744.19 ± 1.9 | 739.34 ± 1.9 | 1175 ± 4 | 1152 ± 4 | 1129 ± 4
x1 = 0.9073 | 747.36 ± 2.1 | 742.58 ± 2.1 | 737.75 ± 2.1 | 1183 ± 5 | 1159 ± 5 | 1136 ± 5
x1 = 0.9529 | 746.95 ± 2.1 | 742.17 ± 2.1 | 737.35 ± 2.1 | 1188 ± 5 | 1164 ± 5 | 1141 ± 5
x1 = 1 | 746.64 ± 2.2 | 741.94 ± 2.2 | 737.21 ± 2.2 | 1197 ± 5 | 1174 ± 5 | 1150 ± 5

CC1CCCC1 [methylcyclopentane] + CCC(C)O
speed of sound [m/s], [2]
Conditions | 293.15 K | 298.15 K | 303.15 K
x1 = 0.0503 | 1223 ± 2 | 1204 ± 2 | 1186 ± 2
x1 = 0.0966 | 1216 ± 2 | 1198 ± 2 | 1179 ± 2
x1 = 0.198 | 1205 ± 2 | 1185 ± 2 | 1165 ± 2
x1 = 0.3041 | 1194 ± 2 | 1173 ± 2 | 1153 ± 2
x1 = 0.4088 | 1186 ± 3 | 1164 ± 3 | 1143 ± 3
x1 = 0.5084 | 1180 ± 3 | 1158 ± 3 | 1137 ± 3
x1 = 0.5961 | 1177 ± 3 | 1155 ± 3 | 1133 ± 3
x1 = 0.7045 | 1176 ± 4 | 1154 ± 4 | 1132 ± 4
x1 = 0.8151 | 1180 ± 4 | 1157 ± 4 | 1134 ± 4
x1 = 0.9065 | 1185 ± 5 | 1162 ± 5 | 1139 ± 5
x1 = 0.9532 | 1189 ± 5 | 1166 ± 5 | 1143 ± 5
x1 = 1 | 1197 ± 5 | 1174 ± 5 | 1150 ± 5

CC1CCCC1 [methylcyclopentane] + CCCO
speed of sound [m/s], [2]
Conditions | 293.15 K | 298.15 K | 303.15 K
x1 = 0.0475 | 1217 ± 2 | 1199 ± 2 | 1182 ± 2
x1 = 0.0967 | 1211 ± 2 | 1193 ± 2 | 1175 ± 2
x1 = 0.2055 | 1201 ± 2 | 1182 ± 2 | 1163 ± 2
x1 = 0.2984 | 1195 ± 3 | 1175 ± 3 | 1155 ± 3
x1 = 0.4014 | 1189 ± 3 | 1169 ± 3 | 1148 ± 3
x1 = 0.5007 | 1185 ± 3 | 1164 ± 3 | 1142 ± 3
x1 = 0.6133 | 1183 ± 4 | 1161 ± 4 | 1139 ± 4
x1 = 0.7115 | 1183 ± 4 | 1160 ± 4 | 1137 ± 4
x1 = 0.8124 | 1184 ± 4 | 1161 ± 4 | 1138 ± 4
x1 = 0.9073 | 1188 ± 5 | 1164 ± 5 | 1141 ± 5
x1 = 0.9529 | 1191 ± 5 | 1167 ± 5 | 1144 ± 5
x1 = 1 | 1197 ± 5 | 1174 ± 5 | 1150 ± 5

CCCC(C)O (stereo unspecified) [pentan-2-ol]
[1]
Conditions | mass density [kg/m3] | speed of sound [m/s] | viscosity [mPa·s]
293.15 K | 809.04 ± 0.94 | 1250 ± 2 | 4.001 ± 0.18
298.15 K | 805.01 ± 0.95 | 1232 ± 2 | 3.273 ± 0.15
303.15 K | 800.9 ± 0.96 | 1214 ± 2 | 2.774 ± 0.12

— the NIST ThermoML archive (doi:10.1016/j.jct.2005.12.010)
